Results taken from ChEMBL document CHEMBL1136826, “A new synthesis of cytoxazone and its diastereomers provides key initial SAR information” (Bioorg Med Chem Lett, 2003).

Assays:
Mus musculus = species: Mus musculus; experiment: Inhibitory activity against blockage secretion of IL-10 in pokeweed mitogen (PWN)-stimulated murine splenocytes; assay type: functional, organism-based
[1] = Inhibitory activity against IL-10 on stimulated human peripheral blood mononuclear cells at 30 uM concentration; assay type: functional
[2] = Inhibitory activity against IL-2 on stimulated human peripheral blood mononuclear cells at 30 uM concentration; assay type: functional
[3] = Inhibitory activity against IL-4 on stimulated human peripheral blood mononuclear cells at 30 uM concentration; assay type: functional
[4] = Inhibitory activity against IL-5 on stimulated human peripheral blood mononuclear cells at 30 uM concentration; assay type: functional

Structure (SMILES): COc1ccc([C@H]2NC(=O)O[C@H]2CO)cc1
- IC50 (Mus musculus): 10 µM
- inhibition at 30 µM [1]: 94%
- inhibition at 30 µM [2]: 19%
- inhibition at 30 µM [3]: 73%
- inhibition at 30 µM [4]: 66%
